# ChEMBL document CHEMBL1201862, “PubChem BioAssay data set” (2004)
#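 96-well plates; 48 h exposure; 5 concentrations. Endpoints by linear interpolation between flanking doses. Not reached: highest tested concentration assigned. GI50 is the concentration that inhibits growth by half.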 Active and inactive are the calls of the source. Cut-off read from the data, not from the text of the source: active = GI50 up to about 1.1 µM and inactive = higher.
# Tests used:
# Test in all cases: NCI tumour cell line growth inhibition, 48 h
# A549 = test system: A549
# COLO 205 = test system: COLO 205
# HCT-15 = test system: HCT-15
# HOP-62 = test system: HOP-62
# HT-29 = test system: HT-29
# KM12 = test system: KM12
# LOX IMVI = test system: LOX IMVI
# M14 = test system: M14
# NCI-H522 = test system: NCI-H522
# OVCAR-3 = test system: OVCAR-3
# OVCAR-4 = test system: OVCAR-4
# SF-295 = test system: SF-295
# SK-MEL-28 = test system: SK-MEL-28
# SN12C = test system: SN12C
# SNB-75 = test system: SNB-75
# SW-620 = test system: SW-620
# RXF 393 = test system: RXF 393
# SNB-19 = test system: SNB-19
# UO-31 = test system: UO-31
# EKVX = test system: EKVX
SMILES,GI50 (A549),GI50 (COLO 205),GI50 (HCT-15) [µM],GI50 (HOP-62),GI50 (HT-29),GI50 (KM12),GI50 (LOX IMVI),GI50 (M14),GI50 (NCI-H522),GI50 (OVCAR-3),GI50 (OVCAR-4),GI50 (SF-295),GI50 (SK-MEL-28),GI50 (SN12C),GI50 (SNB-75),GI50 (SW-620),GI50 (RXF 393),GI50 (SNB-19),GI50 (UO-31),GI50 (EKVX)
C=CS(=O)(=O)CCN1CC1,> 10 µM (inactive),> 10 µM (inactive),> 10,> 10 µM (inactive),> 10 µM (inactive),> 10 µM (inactive),> 10 µM (inactive),> 10 µM (inactive),> 10 µM (inactive),> 10 µM (inactive),> 10 µM (inactive),> 10 µM (inactive),> 10 µM (inactive),> 10 µM (inactive),> 10 µM (inactive),> 10 µM (inactive),,,,
Cc1ccc(S(=O)(=O)N2CCCSCC2)cc1,> 100 µM (inactive),> 100 µM (inactive),> 100,,> 100 µM (inactive),> 100 µM (inactive),> 100 µM (inactive),,> 100 µM (inactive),,> 100 µM (inactive),> 100 µM (inactive),> 100 µM (inactive),> 100 µM (inactive),61.7 µM (inactive),> 100 µM (inactive),62.7 µM (inactive),> 100 µM (inactive),35.2 µM (inactive),
C/C(=N/NS(=O)(=O)c1ccc([N+](=O)[O-])cc1)c1cccc[n+]1[O-],> 100 µM (inactive),,> 100,> 100 µM (inactive),> 100 µM (inactive),> 100 µM (inactive),,> 100 µM (inactive),> 100 µM (inactive),> 100 µM (inactive),> 100 µM (inactive),> 100 µM (inactive),> 100 µM (inactive),> 100 µM (inactive),> 100 µM (inactive),> 100 µM (inactive),,> 100 µM (inactive),> 100 µM (inactive),> 100 µM (inactive)
CCOC(=O)/C(=C/c1cn(C(C)=O)c2ccccc12)P(=O)(OC)OC,33.2 µM (inactive),> 10 µM (inactive),29.7,63.4 µM (inactive),40.5 µM (inactive),,25.3 µM (inactive),52.4 µM (inactive),30.5 µM (inactive),20.3 µM (inactive),33.4 µM (inactive),44.4 µM (inactive),37.2 µM (inactive),31.6 µM (inactive),16 µM (inactive),41.8 µM (inactive),,,,
COc1cccc(C2C(C(=O)O)=C(CO)Oc3cc4c(cc32)OCO4)c1 (stereo unspecified),,> 100 µM (inactive),> 100,,> 100 µM (inactive),,> 100 µM (inactive),> 100 µM (inactive),> 100 µM (inactive),> 100 µM (inactive),,> 100 µM (inactive),> 100 µM (inactive),> 100 µM (inactive),> 100 µM (inactive),> 100 µM (inactive),,> 100 µM (inactive),> 100 µM (inactive),> 100 µM (inactive)
CCOC(=O)C(=O)Nc1cccc(C)c1C,> 100 µM (inactive),> 100 µM (inactive),> 100,> 100 µM (inactive),> 100 µM (inactive),> 100 µM (inactive),,> 100 µM (inactive),> 100 µM (inactive),> 100 µM (inactive),> 100 µM (inactive),> 100 µM (inactive),> 100 µM (inactive),> 100 µM (inactive),> 100 µM (inactive),> 100 µM (inactive),,> 100 µM (inactive),> 100 µM (inactive),> 100 µM (inactive)
C=COCCCOc1ccccc1,> 100 µM (inactive),> 100 µM (inactive),> 100,> 100 µM (inactive),> 100 µM (inactive),> 100 µM (inactive),> 100 µM (inactive),> 100 µM (inactive),> 100 µM (inactive),> 100 µM (inactive),> 100 µM (inactive),,> 100 µM (inactive),> 100 µM (inactive),,> 100 µM (inactive),> 100 µM (inactive),> 100 µM (inactive),> 100 µM (inactive),> 100 µM (inactive)
CN(NC(=O)c1cccs1)C1=NCCCN1,> 100 µM (inactive),> 100 µM (inactive),> 100,> 100 µM (inactive),> 100 µM (inactive),> 100 µM (inactive),> 100 µM (inactive),> 100 µM (inactive),> 100 µM (inactive),> 100 µM (inactive),> 100 µM (inactive),> 100 µM (inactive),> 100 µM (inactive),,> 100 µM (inactive),> 100 µM (inactive),> 100 µM (inactive),> 100 µM (inactive),> 100 µM (inactive),85.9 µM (inactive)
Cc1nc2[nH]ncn2c(=O)c1CCO,> 10 µM (inactive),> 10 µM (inactive),> 10,> 10 µM (inactive),> 10 µM (inactive),,> 10 µM (inactive),> 10 µM (inactive),> 10 µM (inactive),,> 10 µM (inactive),,2.56 µM (inactive),> 10 µM (inactive),> 10 µM (inactive),> 10 µM (inactive),> 10 µM (inactive),> 10 µM (inactive),> 10 µM (inactive),> 10 µM (inactive)
Cc1c(N(Cc2ccccc2)Cc2ccccc2)nc(S(C)(=O)=O)nc1S(C)(=O)=O,15.3 µM (inactive),,2.56,14.7 µM (inactive),1.94 µM (inactive),,1.84 µM (inactive),2.14 µM (inactive),1.73 µM (inactive),1.86 µM (inactive),,17.7 µM (inactive),,2.08 µM (inactive),,1.93 µM (inactive),1.57 µM (inactive),13.4 µM (inactive),12.1 µM (inactive),1.53 µM (inactive)
CC(C)c1cccc(C(C)C)c1OS(=O)(=O)NC(=O)OC(C(F)(F)F)C(F)(F)F,28.6 µM (inactive),88.3 µM (inactive),34.1,34.8 µM (inactive),,43.7 µM (inactive),50 µM (inactive),19.2 µM (inactive),39.5 µM (inactive),,50.1 µM (inactive),25.3 µM (inactive),> 100 µM (inactive),33.2 µM (inactive),,51.6 µM (inactive),,28.2 µM (inactive),30.1 µM (inactive),37.8 µM (inactive)
CCCCNC1=C2C(=O)NN=C2CO1,> 100 µM (inactive),> 100 µM (inactive),> 100,> 100 µM (inactive),> 100 µM (inactive),> 100 µM (inactive),> 100 µM (inactive),> 100 µM (inactive),> 100 µM (inactive),,> 100 µM (inactive),> 100 µM (inactive),> 100 µM (inactive),> 100 µM (inactive),> 100 µM (inactive),> 100 µM (inactive),> 100 µM (inactive),> 100 µM (inactive),> 100 µM (inactive),> 100 µM (inactive)
CCP(=O)(CC)C(Cl)(Cl)C(O)C(C)(C)C (stereo unspecified),> 100 µM (inactive),> 100 µM (inactive),> 100,> 100 µM (inactive),> 100 µM (inactive),,> 100 µM (inactive),> 100 µM (inactive),> 100 µM (inactive),> 100 µM (inactive),> 100 µM (inactive),> 100 µM (inactive),> 100 µM (inactive),> 100 µM (inactive),> 100 µM (inactive),> 100 µM (inactive),,> 100 µM (inactive),> 100 µM (inactive),
CC(C)(C)C(=O)OCC1OC(N=[N+]=[N-])C(OC(=O)C(C)(C)C)C(OC(=O)C(C)(C)C)C1OC(=O)C(C)(C)C (stereo unspecified),> 100 µM (inactive),> 100 µM (inactive),> 100,> 100 µM (inactive),> 100 µM (inactive),> 100 µM (inactive),,> 100 µM (inactive),> 100 µM (inactive),> 100 µM (inactive),> 100 µM (inactive),> 100 µM (inactive),> 100 µM (inactive),> 100 µM (inactive),> 100 µM (inactive),> 100 µM (inactive),> 100 µM (inactive),> 100 µM (inactive),> 100 µM (inactive),> 100 µM (inactive)
CC(C)(Br)C1(O)CCCN1C(=O)c1ccccc1 (stereo unspecified),> 100 µM (inactive),> 100 µM (inactive),> 100,,> 100 µM (inactive),> 100 µM (inactive),> 100 µM (inactive),> 100 µM (inactive),> 100 µM (inactive),> 100 µM (inactive),,25.1 µM (inactive),> 100 µM (inactive),> 100 µM (inactive),97.5 µM (inactive),> 100 µM (inactive),> 100 µM (inactive),> 100 µM (inactive),> 100 µM (inactive),> 100 µM (inactive)
CCCCCCCCCCCC1=NCCN1,90.6 µM (inactive),19.4 µM (inactive),15.1,,> 100 µM (inactive),63.8 µM (inactive),3.75 µM (inactive),> 100 µM (inactive),26.5 µM (inactive),95.3 µM (inactive),14.8 µM (inactive),87.7 µM (inactive),> 100 µM (inactive),77.6 µM (inactive),32 µM (inactive),34.7 µM (inactive),> 100 µM (inactive),> 100 µM (inactive),32.1 µM (inactive),
CC(=O)/N=C1/N(/C=C2\C(=O)Oc3ccccc3C2=O)C(=O)/C(=C/c2ccc(NC(C)=O)cc2)N1C,> 100 µM (inactive),> 100 µM (inactive),> 100,> 100 µM (inactive),> 100 µM (inactive),> 100 µM (inactive),> 100 µM (inactive),> 100 µM (inactive),47.9 µM (inactive),76 µM (inactive),> 100 µM (inactive),> 100 µM (inactive),> 100 µM (inactive),> 100 µM (inactive),84.9 µM (inactive),> 100 µM (inactive),> 100 µM (inactive),,,> 100 µM (inactive)
